Marks after values point to notes of the source that are not given here.
Assays:
[1] = test system: cultured neuronal cells of rat hippocampus; assay: Intracellular Ca++ concentration, Fluo-3/AM fluorescence; assay type: cell-based; conditions: 1 mM in 9 sec. pulse applied onto cultured hippocampal neurons
[2] = Octanol-saline partition coefficient (lipophilicity); assay type: physicochemical; conditions: for LogPc, octanol-saline partition coefficient, M = Ca++: calcium salt (BAPTA: dicalcium salt); for LogPc, octanol-saline partition coefficient, M = Ca++ / LogPc, octanol-saline partition coefficient, M = Na+: octanol/physiological saline, 26° C.; for LogPc, octanol-saline partition coefficient, M = Na+: sodium salt (BAPTA: tetrasodium salt)
Method: The lipophilicity values of several BAPTA diesters salts of the invention were studied by comparing the solubility of these compounds in organic versus aqueous solutions. Octanol and physiological saline were used, respectively, as the organic and aqueous solutions. The partition coefficient (Pc), i.e the distribution ratio between the organic and the aqueous phases were determined for several specific BAPTA diesters salts of the general formula I: [drawing 6]

[3] = Water/octanol distribution of Ca++ ions; assay type: physicochemical; conditions: 15 ml octanol / 15 ml saline pH 6.5; CaCl2 2×10^−3 M/L
Method: (§1) The hydrophilic/hydrophobic system used in this set of experiments consisted of 15 ml octanol and 15 ml saline pH=6.5. DP-BAPTA 99 was dissolved in the octanol solution before this phase was mixed with the saline. The DP-BAPTA concentration in the different experiments varied from 2.1×10^−6 to 5.5×10^−4 M/L in the experiments with Ca^2+ and from 5.4×10^−6 to 1.4×10^−3 M/L in the experiments with either Zn^2+ or Fe^2+, as indicated for each point in FIGS. 1A-C. The corresponding metal ions were added in the aqueous solution as chlorides at the following concentrations: FeCl2 2×10^−3 M/L, ZnCl2 10^−4 M/L, CaCl2 2×10^−3 M/L.
(§2) The octanol and buffer phases were mixed and vortexed for 1 hr at room temperature, followed by centrifugation at 4000 rpm, 10 min in order to separate the mixture to the two phases.
(§3) Different analytical procedures were employed for water and octanol samples: i) Water samples were analyzed versus ICP standards from Merk. Ca and Zn were determined in tested solutions by inductively coupled plasma atomic emission spectrometry. An ICP-AES, model “Spectroflame Modula E” from Spectro, Kleve, Germany was used, with a standard cross flow nebulizer and fixed EOP torch. The power level was 1.2 kW, coolant flow—15 l/min, auxilliary flow 0.5 l/min and nebulizer flow—0.5 l/min. ii) Octanol samples, 2-ml each, in a glass tube, were transferred to a heating block. […]

Na/K-ATPase = Na/K-ATPase activity in mouse brain cortex homogenate; assay type: biochemical; conditions: 10^−7 to 10^2 μg/ml; mouse cerebral cortex homogenate
Method: Thus, the effects of BAPTA-diesters on Na/K-ATPase activity were examined in mouse brain homogenates treated with different concentrations of diethyl-BAPTA (DP-BAPTA 27, disodium salt). The BAPTA-diester tested concentrations ranged from 10^−7 to 10^2 μg/ml.
Preparation of mouse brain homoganate. Male CD-1 mice (10 to 21 days of age) were sacrificed by rapid decapitation. The skull was opened, the brains removed and cut into two. The cortex was isolated, put into sodium Ringer's buffer, washed three times with ice cold PBS and kept on ice. The brain tissue was homogenized using a Polytron at 14000 rpm for 4×30 seconds, on ice. The homogenization buffer contained: 250 mM Sucrose; 1 mM EGTA; 20 mM HEPES-Tris, pH 7.4, and the protease inhibitor PMSF.
The homogenate was span down in a Sorval refrigerated centrifuge at 27000 g for 30 minutes. The membrane fraction was collected and re-suspended in the homogenization buffer. […]
Na/K-ATPase assay. Na/K ATPase was measured as described before (Norby J, G. Coupled (1988) Assay of the Na^+—K^+ ATPase Activity. Methods in Enzymology. 156: 116-119) in the absence and presence of the Na/K-ATPase inhibitor, ouabain (3 mM). The Protein content was determined using the Bio Rad-Bradford assay as previously described (Bradford, M. (1978) Protein assay. Ann. Biochem. 72: 248-257.).

Mongolian gerbils [4] = conditions: 5 μg/kg i.p. single dose immediately after 10 minutes ischemia; three days after ischemia
Mongolian gerbils [5] = conditions: for neuroprotective activity, sodium salt compared with calcium salt: global forebrain ischemia model; for neuronal damage (serum NSE activity 24 hours after ischemia): single dose 5μg/kg i.p. at onset of reperfusion (t=0) or 3 hours after (t=3), 10 min ischemia
Method: (§4) Animal. Male Mongolian gerbils 60-70 g (Charles River Laboratories, USA) were used for the study.
(§5) Induction of ischemia. Anesthesia was induced in gerbils with halothane (4%) in an anesthesia chamber (30% oxygen, 70% nitrous oxide) and was maintained with 1% halohtane in 30% oxygen and 70% nitrous oxide using face masks. For ischemia induction, both common carotid arteries were isolated via a neck midline incision and temporarily occluded for 10 or 20 min, as indicated, using arterial clips. During the entire period of cerebral ischemia, when the clips were in place, anesthesia was maintained only with 30% oxygen and 70% nitrous oxide, without halothane. Rectal temperature, monitored with a rectal probe, was maintained throughout ischemia at 37-37.5° C. by using a warming lamp and heating pad. Whenever applied, the tested BAPTA diesters were administered to the animals either parenterally via i.p. or orally, at the times and dosages as indicated in each particular experiment. Control animals were treated with the vehicle alone, i.e with 0.9% NaCl solution instead of the PABTA diester compound.
Statistics. Statistical analysis was carried out using the Student's t-test with Bonferroni corrections and p<0.05 as the level of significance.
Neuronal-specific enolase (NSE) assay. Blood samples were taken from the orbital sinus of gerbils 24 and 72 hours after 10 min period of cerebral ischemia. Blood samples were centrifuged for 5 min at 3000 rpm to obtain serum (the supernatant fraction). NSE activity in the serum was determined by radioimmunoassay using NSE kit (Pharmatope Ltd.,Israel).
The enzymatic activity of neuronal-specific enolase (NSE ) in the serum was used for evaluating the efficacy of the tested BAPTA-diesters in preventing neuronal damage. […] Thus, NSE may serve as a quantitative marker for the degree of neuronal damage.

Mongolian gerbils [6] = assay: Global forebrain ischemia, animal survival; assay type: in vivo; conditions: 10 μg/kg i.p. single dose at onset of reperfusion; 20 min ischemia
Method: as §4, §5

Wistar rats = assay: Pilocarpine-induced epilepsy; conditions: i.p. one hour before pilocarpine 400 mg/kg
[7] = test system: cultured hippocampal neurons; conditions: 0.1, 1.0 or 10.0 μg/ml perfused 5 minutes; 40 millisecond K+ pulses
[8] = Water/octanol distribution of Fe++ ions; assay type: physicochemical; conditions: 15 ml octanol / 15 ml saline pH 6.5; FeCl2 2×10^−3 M/L
Method: as §1, §2, §3

[9] = Water/octanol distribution of Zn++ ions; assay type: physicochemical; conditions: 15 ml octanol / 15 ml saline pH 6.5; ZnCl2 10^−4 M/L
Method: as §1, §2, §3

Row | Structure (SMILES) | effect on intracellular calcium levels (Fluo-3 fluorescence) [1] | LogPc, octanol-saline partition coefficient, M = Ca++ [2] | LogPc, octanol-saline partition coefficient, M = Na+ [2] | drug concentration at which transfer of Ca++ ions from water to octanol is evident [3] | effect on Na/K-ATPase activity (Na/K-ATPase) | ischemia-induced neuronal damage in CA-2, CA-3 and dentate gyrus regions of the hippocampus (Mongolian gerbils [4]) | neuroprotective activity, sodium salt compared with calcium salt (Mongolian gerbils [5]) | neuronal damage (serum NSE activity 24 hours after ischemia) (Mongolian gerbils [5]) | extension of survival time (Mongolian gerbils [6]) | lipophilicity relative to the sodium salt of the parent molecule BAPTA ([2]; octanol versus aqueous phase) | effect on generalized seizures (Wistar rats) | effect on limbic seizures (Wistar rats) | effect on mortality during the 3 hour period of status epilepticus (Wistar rats) | prevention of status epilepticus (Wistar rats) | serum NSE activity 24 h and 72 h after global cerebral ischemia (Mongolian gerbils [5]; oral, 0.5 mg/kg 4 hours before and at onset of reperfusion, or 0.5 mg/kg daily for 3 days after ischemia) | effect on potassium-induced increase in intracellular calcium ion concentration [7] | drug concentration at which transfer of Fe++ ions from water to octanol is evident [8] | drug concentration at which transfer of Zn++ ions from water to octanol is evident [9]
1 | O=C(O)CN(CC(=O)O)c1ccccc1OCCOc1ccccc1N(CC(=O)O)CC(=O)O [BAPTA, 1,2-bis(2 aminophenoxy)ethane-N,N,N′,N′-tetraacetic acid, reference compound] | only insignificant increase in intracellular Ca^2+ | −1.71^d) | −3.3^c) | does not | – | – | – | – | – | – | – | – | – | – | – | – | – | –
2 | CCOC(=O)CN(CC(=O)O)c1ccccc1OCCOc1ccccc1N(CC(=O)O)CC(=O)OCC [DP-BAPTA 27, diethyl-BAPTA] | – | – | – | – | dose dependent increase in Na/K-ATPase activity | – | – | – | – | – | – | – | – | – | – | – | – | –
3 | CCCCCCCCOC(=O)CN(CC(=O)O)c1ccccc1OCCOc1ccccc1N(CC(=O)O)CC(=O)OCCCCCCCC [DP-BAPTA-60, Octyl diester of BAPTA] | – | 0.79 | 0.85 | – | – | effective in decreasing the ischemia-induced neuronal damage in the same regions, albeit to a lesser extent than DP-BAPTA 99 | equally effective | prevented neuronal damage | 2 fold | – | – | – | – | – | – | – | – | –
4 | CCCCCCCCOCCOC(=O)CN(CC(=O)O)c1ccccc1OCCOc1ccccc1N(CC(=O)O)CC(=O)OCCOCCCCCCCC [DP-BAPTA-99, BAPTA diester of octylethylene glycol] | – | 1.10 | 0.80 | 250 to 500 µM | – | significant neuroprotective effect | much pronounced neuroprotective activity comparing to the calcium salt | prevented neuronal damage | 3 fold | 10,000 fold | capable of preventing generalized seizures | no effect | reduces mortality | about half of the population | significant reduction in NSE activity | attenuates potassium-induced increase in intracellular calcium ion concentration | 250 to 500 µM | 10 µM

Reference: patent US6458837B1, “Lipophilic diesters of chelating agents” (D-Pharm Ltd., priority 1997, dated 2002)
